Measurements published in patent publication US11951214B2, “Capsule formulations” (CHEMOCENTRYX, INC., priority 2018, dated 2024).
Values after ≈ are worked out from the molar mass of the structure shown.

How the values were obtained:
[1] = Pharmacokinetics of solid solution capsule in patients with ANCA associated vasculitis; format: in vivo, Humans; settings: for Days 57-85 Cmin, Mean / AUC(0-t) / Cmax / Tmax: 30 mg twice daily oral, 50:50 solid solution capsules; for AUC(0-t) / Cmax / Tmax: human, in vivo, po; for AUC(0-t): read-out: Day 1 AUC0-6hr, Mean; for Cmax: read-out: Day 1 Cmax, Mean; for Tmax: read-out: Day 1 Tmax, Mean
Method: Solid Solution capsules of Compound 1 comprising 50:50 macrogol-40-glycerol hydroxystearate:PEG-4000 were prepared using the general procedures described in Example 4.
Patients with AAV were randomized and double-blind in placebo-controlled clinical trial conducted in a step-wise manner to evaluate the efficacy and safety of Compound 1 formulated in a solid solution as described above with reduced or no prednisone in comparison with the standard of care full dose prednisone. All patients received either cyclophosphamide (CYC) or rituximab (RTX) intravenously. 22 subjects received 30 mg of Compound 1 as described above b.i.d. for 84 days and no prednisone (prednisone-matching placebo), 22 subjects received 30 mg Compound 1 as described above b.i.d. for 84 days plus a reduced starting dose (i.e., 20 mg/day) of prednisone, and 23 subjects received Compound 1 as described above—matching placebo b.i.d. for 84 days plus a full starting dose of prednisone (i.e., 60 mg/day). All subjects received IV cyclophosphamide or rituximab.

[2] = Pharmacokinetics of solid solution capsules in dogs; settings: male, beagle, dog, in vivo, po, 20 mg, PO 20 mg/dog
Method: Solid Solution capsules of Compound 1 comprising 50:50 macrogol-40-glycerol hydroxystearate:PEG-4000 or 100% macrogol-40-glycerol hydroxystearate were prepared using the general procedures described in Example 4. The PEG heating steps were omitted for the 100% macrogol-40 glycerol hydroxystearate formulations. These formulations were dosed in beagle dogs (male) at 20 mg per dog to evaluate the pharmacokinetic profile. The results are summarized in Table 11 (below, and shown in FIG. 8 (50:50 macrogol-40-glycerol hydroxystearate:PEG-4000 and FIG. 9 (100% macrogol-40-glycerol hydroxystearate).

[3] = Solubility of Compound 1 in alternative excipients/solvents (liquid formulations, cranberry juice dilution); format: physicochemical
Method: Liquid formulations of PEG400/EtOH and Compound 1 can be prepared using general methods for making liquid formulations known in the art. For example, Compound 1 was dissolved in EtOH with agitation and ambient temperature, then the desired amount of PEG400 was added to achieve the desired ratios.
The liquid formulations of the present example are prepared as described in Example 2. When additional excipients are included, they are added after dissolution of Compound 1 in ethanol.

[4] = pH solubility profile of Compound 1 in buffers, water, HCl and biorelevant media; format: physicochemical
[5] = AAV patients, Compound 1 + Low Dose Prednisone
[6] = 30 mg, AAV patients, Compound 1 + No Prednisone
[7] = 30 mg, AAV patients, Compound 1 with or without Prednisone
[8] = capsule in 50:50 macrogol-40-glycerol hydroxystearate:PEG-4000, Average of T1-T3
[9] = capsule in 50:50 macrogol-40-glycerol hydroxystearate:PEG-4000, trial T1
[10] = capsule in 50:50 macrogol-40-glycerol hydroxystearate:PEG-4000, trial T2
[11] = capsule in 50:50 macrogol-40-glycerol hydroxystearate:PEG-4000, trial T3
[12] = capsule in 100% macrogol-40-glycerol hydroxystearate, Average of T1-T3
[13] = capsule in 100% macrogol-40-glycerol hydroxystearate, trial T1
[14] = capsule in 100% macrogol-40-glycerol hydroxystearate, trial T2
[15] = capsule in 100% macrogol-40-glycerol hydroxystearate, trial T3

Cc1ccc(NC(=O)[C@H]2CCCN(C(=O)c3c(C)cccc3F)[C@H]2c2ccc(NC3CCCC3)cc2)cc1C(F)(F)F [Compound 1, (2R,3 S)-2-(4-(cyclopentylamino)phenyl)-1-(2-fluoro-6-methylbenzoyl)-N-(4-methyl-3-(trifluoromethyl)phenyl)piperidine-3-carboxamide]
Days 57-85 Cmin, Mean [1, 5]: 219 ng/mL | Days 57-85 Cmin, Mean ([1]; AAV patients, Compound 1 + No Prednisone): 177 ng/mL | Days 57-85 Cmin, Mean ([1]; AAV patients, Compound 1 with or without Prednisone): 204 ng/mL | absorption ([1]; following the first dose of 30 mg on Day 1, AAV patients): absorbed rapidly | AUC(0-t) [1, 6]: 526 ng·h/mL | Cmax [1, 6]: 166 ± 55.2 ng/mL | Tmax [1, 6]: 2.85 h | AUC(0-t) [1, 7]: 580 ± 219 ng·h/mL | Cmax [1, 7]: 188 ± 69 ng/mL | Tmax [1, 7]: 2.62 h | AUC(0-t) [1, 5]: 643 ng·h/mL | Cmax [1, 5]: 214 ng/mL | Tmax [1, 5]: 2.35 h | drug-drug interaction ([1]; with concomitant medications prednisone, cyclophosphamide, and rituximab, AAV patients): No significant drug-drug interaction | AUC(0-inf) [2, 8]: 1630 ng·h/mL | AUC(0-t) [2, 8]: 1580 ng·h/mL | Cmax [2, 8]: 429 ng/mL | MRT [2, 8]: 4.7 h | Tmax [2, 8]: 1.3 h | AUC(0-inf) [2, 9]: 1310 ng·h/mL | AUC(0-t) [2, 9]: 1260 ng·h/mL | Cmax [2, 9]: 411 ng/mL | MRT [2, 9]: 4.8 h | Tmax [2, 9]: 1 h | AUC(0-inf) [2, 10]: 1440 ng·h/mL | AUC(0-t) [2, 10]: 1390 ng·h/mL | Cmax [2, 10]: 396 ng/mL | MRT [2, 10]: 4.5 h | Tmax [2, 10]: 1 h | AUC(0-inf) [2, 11]: 2150 ng·h/mL | AUC(0-t) [2, 11]: 2080 ng·h/mL | Cmax [2, 11]: 481 ng/mL | MRT [2, 11]: 4.8 h | Tmax [2, 11]: 2 h | AUC(0-inf) [2, 12]: 2440 ng·h/mL | AUC(0-t) [2, 12]: 2370 ng·h/mL | Cmax [2, 12]: 607 ng/mL | MRT [2, 12]: 4.8 h | Tmax [2, 12]: 2.3 h | AUC(0-inf) [2, 13]: 2660 ng·h/mL | AUC(0-t) [2, 13]: 2470 ng·h/mL | Cmax [2, 13]: 590 ng/mL | MRT [2, 13]: 7.1 h | Tmax [2, 13]: 2 h | AUC(0-inf) [2, 14]: 3020 ng·h/mL | AUC(0-t) [2, 14]: 3000 ng·h/mL | Cmax [2, 14]: 604 ng/mL | MRT [2, 14]: 4.2 h | Tmax [2, 14]: 4 h | AUC(0-inf) [2, 15]: 1660 ng·h/mL | AUC(0-t) [2, 15]: 1650 ng·h/mL | Cmax [2, 15]: 628 ng/mL | MRT [2, 15]: 3.2 h | Tmax [2, 15]: 1 h | solubility ([3]; Captisol in water (40% w/v), aqueous with cosolvent or surfactant or cyclodextrin, thermodynamic from solid, Captisol in water (40% w/v), read-out: Solubility): 10 µg/mL (≈ 17.2 µM) | Additional Observations ([3]; Captisol in water (40% w/v), overnight): API undissolved overnight even with warming to 60°. | solubility ([3]; Cavitron W7 HP5 in water (40% w/v)): 50 µg/mL (≈ 86 µM) | Additional Observations ([3]; Cavitron W7 HP5 in water (40% w/v), overnight): API undissolved overnight even with warming to 60°. | Additional Observations ([3]; PEG400/EtOH/Cremophor EL (50/45/5 v/v), prepared 20 mg/mL formulation): A translucent solution with floating fine particles. | Additional Observations ([3]; PEG400/EtOH/Cremophor EL (70/25/5 v/v), prepared 20 mg/mL formulation): A translucent solution. | solubility ([3]; PEG400/EtOH/Solutol HS 15 (50/40/10 v/v), organic solvent or mixture, thermodynamic from solid, PEG400/EtOH/Solutol HS 15 (50/40/10 v/v), visually, against 30 mg/mL control solution, read-out: Solubility): ~30000 µg/mL (≈ 51600 µM) | Additional Observations ([3]; PEG400/EtOH/Solutol HS 15 (50/40/10 v/v), ~30 mg/mL, overnight): few API particles left overnight, did not attempt | solubility ([3]; PEG400/EtOH/Solutol HS 15 (50/45/5 v/v), organic solvent or mixture, thermodynamic from solid, PEG400/EtOH/Solutol HS 15 (50/45/5 v/v), visually, against 30 mg/mL control solution, read-out: Solubility): ~30000 µg/mL (≈ 51600 µM) | Additional Observations ([3]; PEG400/EtOH/Solutol HS 15 (50/45/5 v/v), ~30 mg/mL, overnight): API particles left overnight, did not attempt cranberry | Additional Observations ([3]; PEG400/EtOH/Solutol HS 15 (70/20/10 v/v), 20.4 mg/mL, in cranberry juice): Slow to precipitate with addition to cranberry juice. | solubility ([3]; PEG400/EtOH/Solutol HS 15 (70/20/10 v/v), organic solvent or mixture, PEG400/EtOH/Solutol HS 15 (70/20/10 v/v), read-out: Solubility): 20400 µg/mL (≈ 35100 µM) | Additional Observations ([3]; PEG400/EtOH/Solutol HS 15 (70/25/5 v/v), 20.0 mg/mL, in cranberry juice): Precipitate forms in cranberry juice. | solubility ([3]; PEG400/EtOH/Solutol HS 15 (70/25/5 v/v), organic solvent or mixture, PEG400/EtOH/Solutol HS 15 (70/25/5 v/v), read-out: Solubility): 20000 µg/mL (≈ 34400 µM) | solubility ([3]; PEG400/EtOH/Transcutol P (50/40/10 v/v), organic solvent or mixture, PEG400/EtOH/Transcutol P (50/40/10 v/v), second listing, read-out: Solubility): 20200 µg/mL (≈ 34700 µM) | solubility ([3]; PEG400/EtOH/Transcutol P (50/40/10 v/v), organic solvent or mixture, thermodynamic from solid, PEG400/EtOH/Transcutol P (50/40/10 v/v), visually, against 30 mg/mL control solution, read-out: Solubility): ~30000 µg/mL (≈ 51600 µM) | Additional Observations ([3]; PEG400/EtOH/Transcutol P (50/40/10 v/v), ~30 mg/mL, overnight): few API particles left overnight, did not attempt | solubility ([3]; PEG400/EtOH/Transcutol P (50/45/5 v/v), organic solvent or mixture, PEG400/EtOH/Transcutol P (50/45/5 v/v), second listing, read-out: Solubility): 19900 µg/mL (≈ 34200 µM) | solubility ([3]; PEG400/EtOH/Transcutol P (50/45/5 v/v), organic solvent or mixture, PEG400/EtOH/Transcutol P (50/45/5 v/v), visually, against 30 mg/mL control solution, read-out: Solubility): ~30000 µg/mL (≈ 51600 µM) | Additional Observations ([3]; PEG400/EtOH/Transcutol P (50/45/5 v/v), ~30 mg/mL, overnight): few API particles left overnight, did not attempt | solubility ([3]; PEG400/Propylene Glycol (50/50 v/v), organic solvent or mixture, PEG400/Propylene Glycol (50/50 v/v), read-out: Solubility): 10900 µg/mL (≈ 18700 µM) | Additional Observations ([3]; PEG400/Propylene Glycol (50/50 v/v), overnight, then addition of cranberry juice): Somewhat dissolved overnight, however, precipitation | solubility in control vehicle ([3]; control solution of PEG400/EtOH (50/50% v/v) with 30 mg/mL): Compound 1 is not fully soluble in control vehicle. A few | solubility ([4]; Fasted-State Simulated Intestinal Fluid (FaSSIF), FaSSIF, pH 6.5, actual pH 6.47): 0.656 µg/mL (≈ 1.13 µM) | solubility ([4]; Fed-State Simulated Intestinal Fluid (FeSSIF), FeSSIF, pH 5, actual pH 4.98): 2.09 µg/mL (≈ 3.6 µM) | solubility ([4]; Fed-State Simulated Intestinal Fluid (FeSSIF), FeSSIF, pH 6.5, actual pH 6.47): 1.96 µg/mL (≈ 3.37 µM) | solubility ([4]; Simulated Gastric Fluid (SGF), simulated gastric fluid, SGF, pH 1.6, actual pH 1.39): 2.65 µg/mL (≈ 4.55 µM) | solubility ([4]; Water, actual pH 5.92): 0.008 µg/mL (≈ 0.0138 µM) | aqueous solubility ([4]; across full spectrum of pH range, including the biorelevant media and water): very poor aqueous solubility | solubility ([4]; aqueous buffer, pH 2 Buffer, actual pH 1.99): 0.863 µg/mL (≈ 1.48 µM) | solubility ([4]; aqueous buffer, pH 3 Buffer, actual pH 3.01): 0.101 µg/mL (≈ 0.174 µM) | solubility ([4]; aqueous buffer, pH 4 Buffer, actual pH 4.01): 0.013 µg/mL (≈ 0.0224 µM) | solubility ([4]; aqueous buffer, pH 5 Buffer, actual pH 5.00): 0.021 µg/mL (≈ 0.0361 µM) | solubility ([4]; aqueous buffer, pH 6 Buffer, actual pH 6.00): 0.021 µg/mL (≈ 0.0361 µM) | solubility ([4]; aqueous buffer, pH 7 Buffer, actual pH 7.03): 0.053 µg/mL (≈ 0.0911 µM) | solubility ([4]; aqueous buffer, pH 8 Buffer, actual pH 8.00): 0.068 µg/mL (≈ 0.117 µM) | solubility ([4]; aqueous buffer, pH 9 Buffer, actual pH 9.00): 0.101 µg/mL (≈ 0.174 µM) | solubility ([4]; aqueous buffer, pH 10 Buffer, actual pH 9.95): 0.03 µg/mL (≈ 0.0516 µM) | solubility ([4]; simulated gastric fluid, 0.1N HCl, actual pH 1.05): 8.05 µg/mL (≈ 13.8 µM)
